# Read-outs that look alike come from different tables or passages of the source.
# What was measured:
# SUMO E1 = target: T1, SUMO E1 (Homo sapiens, UniProt Q9UBT2); assay: SUMO E1 inhibition: UBC9-SUMO1 conjugation by SDS gel electrophoresis; format: biochemical; settings: for inhibition at 27 µM: 27 uM compound; for inhibition at 1 µM: 1 uM compound; for inhibition at 10 µM: 10 uM compound; for inhibition at 9 µM: 9 uM compound
# T1 sequence (Q9UBT2 1-640): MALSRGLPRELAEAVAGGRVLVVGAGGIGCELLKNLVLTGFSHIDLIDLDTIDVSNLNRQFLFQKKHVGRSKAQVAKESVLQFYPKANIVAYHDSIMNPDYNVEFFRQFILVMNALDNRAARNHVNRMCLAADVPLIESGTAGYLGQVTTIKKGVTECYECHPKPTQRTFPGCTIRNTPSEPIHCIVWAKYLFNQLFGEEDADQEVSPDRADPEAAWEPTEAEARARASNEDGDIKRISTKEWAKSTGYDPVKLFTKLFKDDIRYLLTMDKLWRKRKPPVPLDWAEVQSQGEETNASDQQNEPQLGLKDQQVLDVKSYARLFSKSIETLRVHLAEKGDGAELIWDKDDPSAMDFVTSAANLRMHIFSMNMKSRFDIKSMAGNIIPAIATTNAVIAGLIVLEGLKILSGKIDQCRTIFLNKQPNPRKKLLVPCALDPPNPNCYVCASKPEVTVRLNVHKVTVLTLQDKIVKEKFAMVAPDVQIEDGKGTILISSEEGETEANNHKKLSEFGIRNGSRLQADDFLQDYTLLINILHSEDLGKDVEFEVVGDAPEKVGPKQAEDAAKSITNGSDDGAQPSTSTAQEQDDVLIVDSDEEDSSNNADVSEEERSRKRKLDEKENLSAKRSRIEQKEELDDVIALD
# T1 sequence (Q9UBE0 1-346 partner): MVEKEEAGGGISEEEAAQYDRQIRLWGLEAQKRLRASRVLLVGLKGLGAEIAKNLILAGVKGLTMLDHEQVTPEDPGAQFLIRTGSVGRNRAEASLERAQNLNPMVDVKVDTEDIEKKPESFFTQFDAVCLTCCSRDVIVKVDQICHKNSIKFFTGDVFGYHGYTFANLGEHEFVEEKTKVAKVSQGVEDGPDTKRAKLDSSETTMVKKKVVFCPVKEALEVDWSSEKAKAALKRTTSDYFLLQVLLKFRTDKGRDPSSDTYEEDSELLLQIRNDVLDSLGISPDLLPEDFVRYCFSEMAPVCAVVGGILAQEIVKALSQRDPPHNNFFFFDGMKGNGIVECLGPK
# Procedure: (§1) Compounds are evaluated for their inhibitory effect on activating enzymes (E1) of ubiquitin, SUMO, Nedd8, Urm1, ISG15 or Atg7 using previously reported methods and protocols. One example is in: Allosteric inhibition of ubiquitin-like modifications by a class of inhibitor of SUMO-activating enzyme. Cell Chemical Biology, 26, 1-11, 2019. PMID: 28051857.
# (§2) Compounds are tested in the following manner. The compound and SUMO E1 are incubated for a predetermined amount of time. UBC9, SUMO1, and ATP are added to the E1-compound mixture and incubated at 37° C. The reaction is quenched with Laemmli Buffer. The UBC9-SUMO1 conjugation is analyzed via SDS gel electrophoresis. The percent inhibition is measured by the intensity of the UBC9-SUMO1 band compared to the no compound control. Activities are listed as compound concentration (uM), preincubation time of E1 with compound (min), and percent inhibition of adduct formation (%). […]
# Atg7 = target: T2, Atg7 (Homo sapiens, UniProt O95352); assay: Atg7 activating enzyme (E1) inhibition; format: biochemical; settings: 25 uM compound, 60 min preincubation; for inhibition at 25 µM: read-out: Atg7 percent inhibition of adduct formation
# T2 sequence (O95352 1-703): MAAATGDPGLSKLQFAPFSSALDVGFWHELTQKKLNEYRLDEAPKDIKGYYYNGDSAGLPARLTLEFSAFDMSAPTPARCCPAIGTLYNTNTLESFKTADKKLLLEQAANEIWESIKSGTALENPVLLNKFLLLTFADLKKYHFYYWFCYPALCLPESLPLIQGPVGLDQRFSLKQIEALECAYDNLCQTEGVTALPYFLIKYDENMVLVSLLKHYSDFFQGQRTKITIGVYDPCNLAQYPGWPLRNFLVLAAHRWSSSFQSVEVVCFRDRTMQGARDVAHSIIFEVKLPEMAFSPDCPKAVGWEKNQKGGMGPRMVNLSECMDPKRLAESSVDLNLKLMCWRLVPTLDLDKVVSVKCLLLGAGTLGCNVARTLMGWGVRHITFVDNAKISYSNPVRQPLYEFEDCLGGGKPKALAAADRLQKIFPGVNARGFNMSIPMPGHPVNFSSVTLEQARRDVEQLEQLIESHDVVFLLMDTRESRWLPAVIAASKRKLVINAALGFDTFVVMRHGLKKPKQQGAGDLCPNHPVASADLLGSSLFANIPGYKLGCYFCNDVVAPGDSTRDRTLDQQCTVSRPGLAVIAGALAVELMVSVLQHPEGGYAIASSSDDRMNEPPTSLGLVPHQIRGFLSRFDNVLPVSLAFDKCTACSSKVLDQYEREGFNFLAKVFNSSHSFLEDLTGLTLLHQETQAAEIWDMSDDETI
# Procedure: as §1, §2
# [1] = 30 min preincubation, read-out: SUMO E1 percent inhibition of adduct formation
# [2] = 25 uM compound, 60 min preincubation, read-out: SUMO E1 percent inhibition of adduct formation
# [3] = 25 uM compound, 30 min preincubation, read-out: SUMO E1 percent inhibition of adduct formation
# [4] = 15 min preincubation, read-out: SUMO E1 percent inhibition of adduct formation
# [5] = 60 min preincubation, read-out: SUMO E1 percent inhibition of adduct formation
# [6] = 20 min preincubation, read-out: SUMO E1 percent inhibition of adduct formation
inhibition at 25 µM (Atg7),inhibition at 25 µM (SUMO E1; [2]),SMILES,other results
< 1%,–,C=CC(=O)N1CCc2ccccc2[C@@H](c2ccccc2)[C@H]1C [Compound 140],inhibition at 27 µM (SUMO E1; [1]): < 1%
< 1%,< 1%,C=CC(=O)N1CCc2ccccc2[C@@H]1c1ccccc1 (stereo in doubt) [Compound 10],–
< 1%,< 1%,C=CC(=O)N1CCC2CCCCC2C1 (stereo not shown) [Compound 12],–
< 1%,50%,C=CC(=O)Nc1cccc([C@H]2CN(C(=O)C=C)Cc3ccccc32)c1 [Compound 52],–
100%,–,Cc1ccccc1[C@H]1CN(C(=O)CCl)Cc2sc(Cl)cc21 [Compound 115],inhibition at 27 µM (SUMO E1; [1]): 80%
< 1%,–,C=CC(=O)N1Cc2cc(Cl)ccc2[C@@H](c2ccccn2)C1 [Compound 80],inhibition at 25 µM (SUMO E1; [3]): 50%
< 1%,< 1%,C=CC(=O)N1Cc2ccc(Br)cc2[C@@H](c2c(Cl)cccc2Cl)C1 [Compound 56],–
–,–,C=CC(=O)N1Cc2sc(Cl)cc2[C@@H](C2CCCCC2)C1 [Compound 124],inhibition at 1 µM (SUMO E1; [1]): 100%
–,–,C=CC(=O)N1Cc2ccc(Br)cc2[C@@H](c2ccc(Cl)cc2)C1 [Compound 66],"SUMO E1 percent inhibition of adduct formation (SUMO E1; 25 uM compound, 60 min preincubation, 25 µM): 25 uM 60 min <1%; Atg7 percent inhibition of adduct formation (Atg7): 25 uM 60 min <1%"
< 1%,–,C=CC(=O)N1Cc2cc(Br)sc2[C@@H](c2ccccc2C)C1 [Compound 111],inhibition at 27 µM (SUMO E1; [1]): 80%
–,–,C=CC(=O)N1Cc2sc(C)cc2[C@@H](c2ccccc2)C1 [Compound 81],inhibition at 10 µM (SUMO E1; [1]): 30%
100%,–,C#CC(=O)N1Cc2sc(Cl)cc2[C@@H](c2ccccc2C)C1 [Compound 93],inhibition at 9 µM (SUMO E1; [1]): 95%
< 1%,< 1%,C=CC(=O)N1Cc2ccccc2C1 [Compound 13],–
< 1%,< 1%,CCC(=O)Nc1ccc2cc(Br)ccc2c1 [Compound 25],–
< 1%,–,C=CC(=O)N1Cc2sc(Cl)cc2[C@@H](c2ccccc2C)C1 [Compound 84],"inhibition at 2.5 µM (SUMO E1; 2.5 uM compound, 30 min preincubation, read-out: SUMO E1 percent inhibition of adduct formation): 90%"
< 1%,–,C=CC(=O)N1CCc2cc(Br)ccc21 [Compound 4],inhibition at 25 µM (SUMO E1; [3]): 10%
< 1%,95%,C=CC(=O)N1Cc2ccc(Br)cc2[C@@H](c2ccccc2C)C1 [Compound 58],–
–,–,C=CC(=O)N1Cc2sc(Cl)cc2[C@@H](c2ccccc2CC)C1 [Compound 144],inhibition at 27 µM (SUMO E1; [1]): 95%
< 1%,< 1%,C=CC(=O)N1CCc2cc(Nc3ccccc3)ccc2C1 [Compound 8],–
< 1%,–,C=CC(=O)N1Cc2sc(Cl)cc2[C@@H](c2ccccc2CC2CCOCC2)C1 [Compound 138],inhibition at 9 µM (SUMO E1; [4]): 50%
100%,–,Cc1ccccc1[C@H]1CN(C(=O)CBr)Cc2sc(Cl)cc21 [Compound 107],inhibition at 9 µM (SUMO E1; [1]): 100%
< 1%,–,C=CC(=O)N1Cc2cc(Cl)ccc2[C@@H](C2CCCCC2)C1 [Compound 102],inhibition at 9 µM (SUMO E1; [1]): 40%

inhibition at 25 µM (Atg7),inhibition at 25 µM (SUMO E1; [2]),SMILES,other results
< 1%,–,C=CC(=O)N1Cc2cc(Br)ccc2[C@@H](c2ccccc2)C1 [Compound 61],inhibition at 10 µM (SUMO E1; [5]): 100%
< 1%,40%,C=CC(=O)N1Cc2ccc(OC)cc2[C@@H](c2ccccc2)C1 [Compound 60],–
< 1%,< 1%,C=CC(=O)N1Cc2ccc(C(C)C)cc2[C@@H](c2ccccc2)C1 [Compound 39],–
< 1%,40%,C=CC(=O)N1Cc2ccccc2[C@@](C)(c2ccccc2)C1 [Compound 59],–
< 1%,< 1%,C=CC(=O)N1Cc2cccc(Cl)c2[C@@H](c2ccccc2C)C1 [Compound 76],–
< 1%,–,C=CC(=O)N1Cc2sc(Cl)c(F)c2[C@@H](c2ccccc2C)C1 [Compound 150],"inhibition at 22 µM (SUMO E1; 22 uM compound, 30 min preincubation, read-out: SUMO E1 percent inhibition of adduct formation): 50%"
–,< 1%,C=CC(=O)N1Cc2ccccc2[C@@H](c2ccccc2)C1 [Compound 28],–
< 1%,< 1%,C=CC(=O)N1Cc2c(C)cc(Br)cc2[C@@H](c2ccccc2)C1 [Compound 47],–
< 1%,–,Cc1ccccc1[C@H]1CN(C(=O)/C=C/c2ccc(C#N)cc2)Cc2sc(Cl)cc21 [Compound 121],inhibition at 27 µM (SUMO E1; [1]): < 1%
< 1%,–,C=CC(=O)N1Cc2sc(Cl)cc2[C@@H](c2ccccc2OCCCN(C)C)C1 [Compound 152],"inhibition at 6 µM (SUMO E1; 6 uM compound, 15 min preincubation, read-out: SUMO E1 percent inhibition of adduct formation): < 1%"
< 1%,–,C=CC(=O)N1Cc2cc(Cl)sc2[C@@H](c2ccccc2C)C1 [Compound 127],inhibition at 27 µM (SUMO E1; [6]): 95%
< 1%,< 1%,C=CC(=O)N1Cc2cc(OCc3ccccc3)ccc2[C@@H](c2ccccc2)C1 [Compound 49],–
–,–,C=CC(=O)Oc1cccc([C@H]2CN(C(=O)C=C)Cc3ccccc32)c1 [Compound 44],"inhibition at 18 µM (SUMO E1; 18 uM compound, 30 min preincubation, read-out: SUMO E1 percent inhibition of adduct formation): 50%"
–,–,C=CC(=O)N1Cc2sc(Cl)cc2[C@@H](c2ccccc2-c2ccccc2C(F)(F)F)C1 [Compound 156],inhibition at 9 µM (SUMO E1; [4]): < 1%
–,–,C=CC(=O)N1Cc2sc(Cl)cc2[C@@H](Cc2ccccc2)C1 [Compound 126],inhibition at 27 µM (SUMO E1; [6]): 40%
–,–,C=CC(=O)N1Cc2sc(Cl)cc2[C@@H](c2cccc(C)c2C)C1 [Compound 149],inhibition at 1 µM (SUMO E1; [1]): 90%
–,–,Cc1ccccc1[C@H]1CN(C(=O)/C=C/CBr)Cc2sc(Cl)cc21 [Compound 131],inhibition at 9 µM (SUMO E1; [4]): < 1%
–,< 1%,CCOC(=O)/C=C/CN1Cc2ccccc2[C@@H](c2ccccc2)C1 [Compound 33],–
–,–,C=CC(=O)N1Cc2sc(Cl)cc2[C@@H](C2CCCC2)C1 [Compound 125],inhibition at 27 µM (SUMO E1; [1]): 100%
–,–,C=CC(=O)Oc1cccc([C@H]2CN(C(C)=O)Cc3ccccc32)c1 [Compound 50],inhibition at 10 µM (SUMO E1; [5]): 50%
–,–,C=CC(=O)N1Cc2sc(Cl)cc2[C@@H](c2ccccc2Br)C1 [Compound 158],"inhibition at 16 µM (SUMO E1; 16 uM compound, 45 min preincubation, read-out: SUMO E1 percent inhibition of adduct formation): < 1%"

# From patent US12398151B2, “Sumo inhibitor compounds and uses thereof” (SUVALENT THERAPEUTICS, INC., priority 2019, dated 2025)
